According to patent US11987586B1 (TAKEDA PHARMACEUTICAL COMPANY LIMITED, priority 2022, dated 2024):

Molecular target: T1, human OX2 receptor (Homo sapiens, UniProt O43614)
T1 construct: expressed in transfected cells
T1 sequence (O43614 1-444): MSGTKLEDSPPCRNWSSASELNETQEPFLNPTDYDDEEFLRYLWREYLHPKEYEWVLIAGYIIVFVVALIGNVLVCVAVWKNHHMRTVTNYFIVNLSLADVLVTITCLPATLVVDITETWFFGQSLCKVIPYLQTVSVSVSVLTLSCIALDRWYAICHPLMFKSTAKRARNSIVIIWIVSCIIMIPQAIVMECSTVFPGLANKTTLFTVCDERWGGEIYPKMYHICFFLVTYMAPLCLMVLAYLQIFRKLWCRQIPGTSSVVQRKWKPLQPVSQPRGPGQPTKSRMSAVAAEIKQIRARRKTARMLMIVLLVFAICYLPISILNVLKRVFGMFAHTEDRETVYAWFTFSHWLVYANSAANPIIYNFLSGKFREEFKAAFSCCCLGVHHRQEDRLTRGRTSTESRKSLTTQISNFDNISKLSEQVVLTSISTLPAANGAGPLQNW
Assay: Measurement of orexin type 2 receptor agonist activity (calcium fluorescence, Fluo-4, FDSS)
Type: cell-based
Details: 3 uM test compound; CHO cells expressing human OX2 receptor; DMSO = 0%, 10 nM orexin A (human) = 100%
Procedure, shortened: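 Agonist activity (%) was normalised to the response to 10 nM final human orexin A (100%) and to the DMSO vehicle (0%). The response was measured as the Fluo-4 calcium signal, read kinetically over 1 min 40 s after compound addition to Fluo-4/probenecid-loaded stable CHO-K1 clones expressing human OX2 (aa 1-444).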

Row | OX2R agonist activity (3 uM, %) | SMILES
1 | 92% | Cc1c(-c2noc3cccc(-c4c(F)cccc4F)c23)c(=O)n2n1CC(NS(C)(=O)=O)C2 (single isomer, unassigned) [Example 340, N-{(2R*)-6-[4-(2,6-difluorophenyl)-1,2-benzoxazol-3-yl]-7-methyl-5-oxo-2,3-dihydro-1H,5H-pyrazolo[1,2-a]pyrazol-2-yl}methanesulfonamide]
2 | 105% | CCS(=O)(=O)N[C@@H]1Cn2c(cn(-c3noc4ccc(F)c(-c5c(F)cccc5F)c34)c2=O)C1(F)F [Example 76, N-{(6R)-2-[4-(2,6-difluorophenyl)-5-fluoro-1,2-benzoxazol-3-yl]-7,7-difluoro-3-oxo-2,5,6,7-tetrahydro-3H-pyrrolo[1,2-c]imidazol-6-yl}ethanesulfonamide]
3 | 109% | CS(=O)(=O)N[C@@H]1Cn2c(cn(-c3noc4cc(F)cc(-c5c(F)cc(F)cc5F)c34)c2=O)C1(F)F [Example 108, N-{(6R)-7,7-difluoro-2-[6-fluoro-4-(2,4,6-trifluorophenyl)-1,2-benzoxazol-3-yl]-3-oxo-2,5,6,7-tetrahydro-3H-pyrrolo[1,2-c]imidazol-6-yl}methanesulfonamide]
4 | 99% | CCS(=O)(=O)N[C@@H]1CN2C(=O)N(c3noc4cccc(-c5ccccc5OC)c34)CC[C@@H]2C1(F)F [Example 322, N-{(4aR,6R)-5,5-difluoro-2-[4-(2-methoxyphenyl)-1,2-benzoxazol-3-yl]-1-oxooctahydropyrrolo[1,2-c]pyrimidin-6-yl}ethanesulfonamide]
5 | 97% | CCS(=O)(=O)N[C@@H]1Cn2c(cn(-c3noc4cc(COC)cc(-c5c(F)cccc5F)c34)c2=O)C1(F)F [Example 167, N-{(6R)-2-[4-(2,6-difluorophenyl)-6-(methoxymethyl)-1,2-benzoxazol-3-yl]-7,7-difluoro-3-oxo-2,5,6,7-tetrahydro-3H-pyrrolo[1,2-c]imidazol-6-yl}ethanesulfonamide]
6 | 102% | CCOc1cc(-c2c(F)cc(F)cc2F)c2c(N3CC[C@H]4N(C[C@@H](NS(=O)(=O)C5CC5)C4(F)F)C3=O)noc2c1 [Example 249, N-{(4aR,6R)-2-[6-ethoxy-4-(2,4,6-trifluorophenyl)-1,2-benzoxazol-3-yl]-5,5-difluoro-1-oxooctahydropyrrolo[1,2-c]pyrimidin-6-yl}cyclopropanesulfonamide]
7 | 106% | COCc1cc2onc(N3CC[C@H]4N(C[C@@H](NS(C)(=O)=O)C4(F)F)C3=O)c2c(-c2c(F)cccc2F)c1F [Example 238, N-{(4aR,6R)-2-[4-(2,6-difluorophenyl)-5-fluoro-6-(methoxymethyl)-1,2-benzoxazol-3-yl]-5,5-difluoro-1-oxooctahydropyrrolo[1,2-c]pyrimidin-6-yl}methanesulfonamide]
8 | 105% | O=C1N(c2noc3cccc(-c4c(F)cc(F)cc4F)c23)CC[C@H]2N1C[C@@H](NS(=O)(=O)C1CC1)C2(F)F [Example 242, N-{(4aR,6R)-5,5-Difluoro-1-oxo-2-[4-(2,4,6-trifluorophenyl)-1,2-benzoxazol-3-yl]octahydropyrrolo[1,2-c]pyrimidin-6-yl}cyclopropanesulfonamide]
9 | 114% | CCS(=O)(=O)N[C@@H]1CN2C(=O)N(c3noc4cc(F)cc(-c5c(F)cccc5F)c34)CC[C@@H]2C1(F)F [Example 263, N-{(4aR,6R)-2-[4-(2,6-difluorophenyl)-6-fluoro-1,2-benzoxazol-3-yl]-5,5-difluoro-1-oxooctahydropyrrolo[1,2-c]pyrimidin-6-yl}ethanesulfonamide]
10 | 102% | CS(=O)(=O)N[C@@H]1CN2C(=O)N(c3noc4cc(OC(F)F)cc(-c5c(F)cc(F)cc5F)c34)CC[C@@H]2C1(F)F [Example 296, N-{(4aR,6R)-2-[6-(difluoromethoxy)-4-(2,4,6-trifluorophenyl)-1,2-benzoxazol-3-yl]-5,5-difluoro-1-oxooctahydropyrrolo[1,2-c]pyrimidin-6-yl}methanesulfonamide]
